Results as given in PMC4575386, “Intact cell mass spectrometry as a rapid and specific tool for the differentiation of toxic effects in cell-based ecotoxicological test systems” (Analytical and Bioanalytical Chemistry, 2015).
Several values for one entry are separate records, joined by “and”; a condition that tells them apart may be missing. Equal values may be shown once.

Tests used:
[1] = test system: RTL-W1 cells; details: 24 h exposure, L15/ex medium
Procedure: (§2) In this study, RTL-W1, a liver cell line from rainbow trout (Oncorhynchus mykiss) was used. […] The cells were routinely grown according to the method detailed by Hinger et al. [23] at 20 °C in Leibovitz L15 medium (Biochrom, Berlin, Germany) supplemented with 10 % fetal calf serum (Biochrom), 5 mM L-alanyl-L-glutamin (Biochrom) and 1 % antibiotics (Gibco by Life Technologies). Cells were grown to approximately 90 % confluency before passaging for experimental use.
(§3) Viability studies were performed in 96-well assay plates. Cells were seeded at a density of 20,000 viable cells/well and cultivated for approximately 24 h. Subsequently, medium was replaced with exposure medium. […]
(§4) After 24 h, the cultures were assayed for viability according to the manufacturer’s instructions (Promega). After a final incubation time of 4 h for CellTiter-Blue® Viability Assay, fluorescence was recorded at 540/595 nm on Tecan infinite 200 Pro microtiter plate reader (Tecan, Männedorf, Switzerland). The integration time for luminescence detection (CellTiter-Glo® Luminescent Cell Viability Assays) on Tecan GENios Plus microtiter plate reader (Tecan) was 500 ms per well.
(§5) Statistical analysis and EC50 calculations were performed using GraphPad Prism (Graphpad Software, San Diego, USA). […] EC50 values were calculated with a sigmoid dose–response fit and automatic outlier detection.

[2] = test system: RTL-W1 cells; details: 24 h exposure, L15/ex medium; remark: listed apart in the source
Procedure: as §2, §3, §4, §5

[3] = test system: RTL-W1 cells; assay: Intact cell MALDI-TOF mass spectrometry (IC-MS) profiles after 24 h toxin exposure; format: cell-based, rainbow trout (Oncorhynchus mykiss); details: for number of IC-MS peaks that changed significantly through the toxin exposure: 24 h exposure
Procedure: For IC-MS studies, cells were seeded in T25 cell culture flasks with a total amount of 1.7 × 10^6 cells. […] Toxin exposure was performed according to the viability studies.
After 24 h of toxin exposure, cells were harvested and washed with PBS at 2000×g, 4 °C for 5 min (Eppendorf 5424, Hamburg, Germany) based on the method detailed by Dong et al.. The total number of cells was calculated using an automated cell counter (Cedex XS Analyzer, Roche Innovatis, Bielefeld, Germany). The cell pellets were stored at −20 °C until IC-MS analysis.
According to the calculated cell number, stock solutions with 5 × 10^4 cells per μL as well as further dilutions of 2 × 10^4 and 1 × 10^4 cells per μL were prepared with PBS und stored on ice prior to IC-MS.
Samples and matrix solutions were deposited on the MALDI-TOF MS target layer by layer and successively air dried. First, a thin layer of saturated SA in ethanol was applied to an Opti-TOF 384 well insert (Kratos Analytical, Manchester, UK), followed by 0.5 μL of the sample solution and, finally, covered with 0.5 μL of SA matrix (38 mg/ml in water/ACN/TFA 40/60/0.2 (v/v/v)) which was presented by Munteanu et al.. All sample dilutions were spotted in duplicate.
MALDI-TOF mass spectra were obtained using an Axima Confidence mass spectrometer (Shimadzu Biotech, Manchester, UK) equipped with a 337-nm nitrogen laser. The filter for regulation of the laser firing power was set to 65. To generate representative profiles, a total of 600 laser shots were accumulated and averaged for each sample. Protein mass fingerprints were obtained in the linear, positive mode at a maximal laser repetition rate of 50 Hz within a mass range of 2000 to 20,000 Da.
MALDI-TOF MS data processing was performed using the LaunchpadTM v. 2.9 software (Shimadzu Biotech). A set of 10 peaks that occurred in the majority of spectra and were evenly distributed across the whole mass range were used for internal calibration.
For peak acquisition, an average smoothing method was performed with a smoothing filter width of 50 channels and a baseline filter width of 100 channels. […] For each spotted sample, a list of spectrum peaks was generated and analyzed statistically. The masses of equally treated samples were matched and means and standard deviations of ion abundances calculated. […] For principal component analysis (PCA), relative ion abundances were calculated and data normalized according to the control treatments. […]
The 15 distinctive peaks between m/z 4562 and m/z 15,292 were analyzed for each toxin treatment: The arithmetic mean of the ion abundances was calculated from the six replicates and the direction of deviation from the control treatment was determined and tested for significance (paired two-sample t test) (Table 2).

[4] = test system: RTL-W1 cells; assay: Viability studies (CellTiter-Blue® and CellTiter-Glo®, not told apart); details: 24 h
Text: (§1) Subsequently, medium was replaced with exposure medium.

[5] = test system: RTL-W1 cells; parameters: method as in earlier work; details: cited from earlier work
[6] = test system: RTL-W1 cells; parameters: method as in earlier work; details: cited from earlier work; remark: listed apart in the source
[7] = Solubility in the culture medium (observation); format: physicochemical; details: high concentrations resulted in precipitation
[8] = Viability studies (CellTiter-Blue® and CellTiter-Glo®, not told apart); details: rainbow trout (Oncorhynchus mykiss)
Text: as §1

[9] = test system: RTL-W1; parameters: method as in PMID 24416442; details: RTL-W1, in preparation for micronucleus assays; cited from earlier work

| SMILES | EC50 cytotoxicity, CellTiter-Glo®, 24 h [1] [µg/mL] | EC50 cytotoxicity, CellTiter-Blue®, 24 h [2] [µg/mL] | IC-MS profile behavior ([3]; 2 mg/L, lowest concentration) | number of IC-MS peaks that changed significantly through the toxin exposure [3] | viability impairment ([4]; 9 mg/L) | EC50 (membrane integrity), literature value [5] [µg/mL] | EC50 (redox activity), literature value [6] [µg/mL] | solubility in the culture medium [7] | concentrations with significant decrease in viability ([4]; vs control) | viability at 24 h, 50 µM [8] [%] | EC20, neutral red retention assay [9] | viability at 24 h, 150 µM [8] [%] |
| --- | --- | --- | --- | --- | --- | --- | --- | --- | --- | --- | --- | --- |
| O=S(=O)([O-])[O-].[Cu+2] [Copper sulfate, copper sulfate] | 10.08 | 8.23 | apoptotic behavior | eight | roughly 50% | 6.56 | 3.69 |  |  |  |  |  |
| O=c1cc(-c2ccccc2)oc2ccc3ccccc3c12 [BNF, β-naphthoflavone] |  |  |  | nine |  |  |  | low solubility | 10 µM and 20 µM | ~50 |  |  |
| c1ccc2nc3ccccc3cc2c1 [Acridine, acridine] |  |  |  | seven |  |  |  |  |  |  | 40.9 mg/L and 228 μM | ~50 |
